According to US11766467B2, “Methods of treating wounds using cathepsin K inhibitors” (University of Wyoming, priority 2017, dated 2023):

What was measured:
[1] = test system: full-thickness wounds in diabetic pigs; test: porcine diabetic (streptozotocin) wound healing model, full-thickness wounds, intradermal injections; assay type: in vivo; conditions: for wound closure: both the higher (300 ng/mm^2) and lower (30 ng/mm^2) doses; for wound closure / wound healing (in words): diabetic pigs
Protocol: Odanacatib is a potent and selective inhibitor of cathepsin K and can be administered to promote wound healing in diabetic pigs. Pigs (3-4 months old) were rendered diabetic with intravenous injection of streptozotocin (75 mg/Kg). Four weeks following streptozotocin injections 6-10 full-thickness (one-inch square, ˜[…] thickness) wounds were created in two columns on each side of the dorsal thoracolumbar midline. […] Wounds were photographed prior to treatment and analyzed for wound closure rates.
Data are expressed as mean±SEM (n=8 for vehicle and 6 each for odanacatib treatment). […] Because some values are missing as we had euthanized one pig from each group on day 14 for molecular analysis, the data were analyzed by fitting a mixed model, rather than by repeated measures ANOVA. […]

[2] = test system: cultured human fibroblasts; test: in vitro monolayer wound-healing assay (cell migration under high glucose); assay type: cell-based; conditions: high glucose 25 mM, 100 ng/ml inhibitor, 5 μg/ml hydroxyurea, 72 h after wounding
Protocol: Referring now to FIGS. 1A-1B, the in vitro monolayer wound-healing assay mimics cell migration during wound healing. An in vitro monolayer wound-healing assay in cultured human fibroblasts was used to test whether pharmacological inhibition of cathepsin K affected cell migration under high-glucose (25 mM) conditions. Mannitol was included to control for osmotic pressure and hydroxyurea to eliminate the potential effects of cell proliferation.
Referring again to FIGS. 1A-1B, inhibition of cathepsin reverses the inhibitory effect of high glucose (HG) on cell migration in a monolayer wound-healing assay. Confluent human fibroblasts were serum starved and subjected to a media containing low (5 mM, LG) or high (25 mM, HG) glucose. The cell monolayer was wounded with a linear scratch using a sterile pipette tip and treated with 100 ng/ml of cathepsin K inhibitor-II in the presence of 5 μg/ml hydroxyurea. At 0 time (upper left panel) and 72 h (lower left panel) after wounding, the cells were photographed using an inverted microscope equipped with a digital camera. Scale bar=600 μm. FIG. 1A. Representative phase-contrast images for each treatment group. FIG. 1B. Bar graph represents the percentage wound closure 72 h after wounding as measured using the NIH Image J software and represented as mean±SEM, n=6, *p<0.01 compared to LG; **p<0.05 compared to LG.

[3] = test system: excisional skin wounds in genetically diabetic db/db mice; test: excisional skin wound healing in genetically diabetic db/db mice, topical inhibitor; assay type: in vivo; conditions: treated along the circumference of the wound
Protocol: FIG. 5 illustrates the effect of a topically delivered pharmacological inhibitor of cathepsin K on wound healing in genetically diabetic mice. Excisional skin wounds were created in genetically diabetic db/db mice and the wounds were treated along the circumference of the wounds with cathepsin K inhibitor II or vehicle. Wound healing was evaluated by measuring the wound closure rate and histomorphometric analysis. […] In contrast, wounds in the vehicle treated group remain unhealed during this time period. Heterozygous (db/db^+/−) mice were used as controls in these studies.

SMILES: CC(C)C[C@H](NC(=O)OCc1ccccc1)C(=O)NNC(=O)NNC(=O)[C@H](CC(C)C)NC(=O)[C@H](Cc1ccccc1)NC(=O)OC(C)(C)C [CatKI-II, 1-(N-Benzyloxycarbonyl-leucyl)-5-(N-Boc-phenylalanyl-leucyl) carbohydrazide]
- Tukey's multiple comparisons test, Summary ([1]; Table 1, D 3, 30 vs. 300 ng/mm^2): ns
- Tukey's multiple comparisons test, Summary ([1]; Table 1, D 3, Vehicle vs. 300 ng/mm^2): ns
- Tukey's multiple comparisons test, Summary ([1]; Table 1, D 7, 30 vs. 300 ng/mm^2): ns
- Tukey's multiple comparisons test, Summary ([1]; Table 1, D 7, Vehicle vs. 300 ng/mm^2): ns
- Tukey's multiple comparisons test, Summary ([1]; Table 1, D 7, Vehicle vs. 30 μg/mm^2): ns
- Tukey's multiple comparisons test, Summary ([1]; Table 1, D 14, Vehicle vs. 300 ng/mm^2): ns
- Tukey's multiple comparisons test, Summary ([1]; Table 1, D 21, Vehicle vs. 300 ng/mm^2): ns
- Tukey's multiple comparisons test, Summary ([1]; Table 2, D 3, 30 vs. 300 ng/mm^2): ns
- Tukey's multiple comparisons test, Summary ([1]; Table 2, D 3, Vehicle vs. 300 ng/mm^2): ns
- Tukey's multiple comparisons test, Summary ([1]; Table 2, D 7, 30 vs. 300 ng/mm^2): ns
- Tukey's multiple comparisons test, Summary ([1]; Table 2, D 7, Vehicle vs. 300 ng/mm^2): ns
- Tukey's multiple comparisons test, Summary ([1]; Table 2, D 7, Vehicle vs. 30 μg/mm^2): ns
- Tukey's multiple comparisons test, Summary ([1]; Table 2, D 14, Vehicle vs. 300 ng/mm^2): ns
- Tukey's multiple comparisons test, Summary ([1]; Table 2, D 21, Vehicle vs. 300 ng/mm^2): ns
- wound closure ([1]; day 21 post-wounding): ~93%
- wound closure / wound healing (in words) [1]: facilitate wound closure
- wound closure / wound healing (in words) ([1]; listed as Cathepsin K inhibitor II): promotes wound healing
- wound area: improvement in wound healing ([1]; lower dose 30 ng/mm^2/wound, day 21 post-wounding): statistically significant improvement in wound healing compared to both vehicle and the higher dose
- fibroblast migration / monolayer wound closure [2]: increased migration beyond that observed in the cells treated with a low-glucose media
- wound resolution ([3]; day 12): significant resolution of wound
- wound resolution ([3]; day 15): almost complete resolution

SMILES: CC(C)(F)C[C@H](N[C@@H](c1ccc(-c2ccc(S(C)(=O)=O)cc2)cc1)C(F)(F)F)C(=O)NC1(C#N)CC1 [odanacatib]
- wound closure ([1]; day 21 post-wounding): ~93%
